Laboratory results from ChEMBL document CHEMBL5584357, “Corannulene Amino Acid-Derived Water-Soluble Amphiphilic Buckybowls as Broad-Spectrum Membrane Targeting Antibacterial Agents” (J Med Chem, 2024).
Converted amounts (≈) assume the structure as drawn. The source made the active and inactive calls. No cut-off for these calls is given here. Peptide text beside a SMILES is read from it.

Key:
Staphylococcus aureus [1] = experiment: Antibacterial activity against methicillin-resistant Staphylococcus aureus ATCC 33591 incubated for 16 to 18 hrs by broth microdilution method; type: functional; settings: time 16-18 hrs
Escherichia coli [2] = experiment: Bactericidal activity against Escherichia coli ATCC 25922 incubated for 16 hrs; type: functional
Acinetobacter baumannii = experiment: Antibacterial activity against Acinetobacter baumanni ATCC 19606 incubated for 16 to 18 hrs by broth microdilution method; type: functional; settings: time 16-18 hrs
Staphylococcus aureus [3] = experiment: Bactericidal activity against Staphylococcus aureus ATCC 25923 incubated for 16 hrs; type: functional
Staphylococcus aureus [4] = experiment: Antibacterial activity against Staphylococcus aureus ATCC 25923 incubated for 16 to 18 hrs by broth microdilution method; type: functional; settings: time 16-18 hrs
Escherichia coli [5] = experiment: Antibacterial activity against Escherichia coli ATCC 25922 incubated for 16 to 18 hrs by broth microdilution method; type: functional; settings: time 16-18 hrs
Pseudomonas aeruginosa = experiment: Antibacterial activity against Pseudomonas aeruginosa ATCC BAA-427 incubated for 16 to 18 hrs by broth microdilution method; type: functional; settings: time 16-18 hrs
Staphylococcus aureus [6] = experiment: Antibacterial activity against methicillin-resistant Staphylococcus aureus ATCC BAA-44 incubated for 16 to 18 hrs by broth microdilution method; type: functional; settings: time 16-18 hrs
Staphylococcus aureus [7] = experiment: Induction of cell membrane damage in Staphylococcus aureus ATCC 25923 at 5 times MIC incubated for 60 mins by SEM analysis; type: functional, organism-based
Staphylococcus aureus [8] = experiment: Bactericidal activity against Staphylococcus aureus VRS1 at 4 times MIC incubated for 24 hrs by time kill assay relative to control; type: functional
Staphylococcus aureus [9] = experiment: Induction of cell membrane damage in Staphylococcus aureus ATCC 25923 at 5 times MIC incubated for 60 mins by PI staining based FACS analysis; type: functional, organism-based
Staphylococcus aureus [10] = experiment: Induction of cell membrane damage in Staphylococcus aureus ATCC 25923 assessed as membrane distortion at 5 times MIC incubated for 60 mins by SEM analysis; type: functional, organism-based
Escherichia coli [11] = experiment: Induction of cell membrane damage in Escherichia coli ATCC 25922 assessed as wrinkling on bacterial surface at 5 times MIC incubated for 60 mins by SEM analysis; type: functional, organism-based
Escherichia coli [12] = experiment: Induction of cell membrane damage in Escherichia coli ATCC 25922 at 1 to 5 times MIC by SYTOX green fluorescence based analysis; type: functional, organism-based
Escherichia coli [13] = experiment: Induction of cell membrane damage in Escherichia coli ATCC 25922 at 5 times MIC incubated for 60 mins by PI staining based FACS analysis; type: functional, organism-based
Staphylococcus aureus [14] = experiment: Induction of cell membrane damage in Staphylococcus aureus ATCC 25923 at 1 to 5 times MIC by SYTOX green fluorescence based analysis; type: functional, organism-based
Staphylococcus aureus [15] = experiment: Induction of cell membrane damage in Staphylococcus aureus ATCC 25923 assessed as bacterial content leakage at 5 times MIC incubated for 60 mins by SEM analysis; type: functional, organism-based
Escherichia coli [16] = experiment: Induction of cell membrane damage in Escherichia coli ATCC 25922 assessed as membrane blebbing at 5 times MIC incubated for 60 mins by SEM analysis; type: functional, organism-based
[17] = Cytotoxicity against mouse 3T3-L1 cells assessed as cell viability upto 60 uM incubated for 4 hrs by MTT assay relative to control; type: toxicity, cell-based; settings: read-out: Activity
Staphylococcus aureus [18] = experiment: Induction of cell membrane damage in Staphylococcus aureus ATCC 25923 assessed as membrane blebbing at 5 times MIC incubated for 60 mins by SEM analysis; type: functional, organism-based
Erythrocyte = experiment: Hemolytic activity against human RBCs upto 70 uM incubated for 45 mins by absorbance based assay; type: toxicity, cell-based; settings: 0.75 h
[19] = Acute toxicity in BALB/c mouse assessed as animal survival at 50 mg/kg, ip measured for 7 days; type: organism-based; settings: in vivo, 168 h, time 7 day
[20] = Acute toxicity in BALB/c mouse assessed as signs of toxicity at 50 mg/kg, ip measured for 7 days; type: organism-based; settings: in vivo, 168 h, time 7 day
Staphylococcus aureus [21] = experiment: Bactericidal activity against Staphylococcus aureus VRS1 at 4 times MIC incubated for 6 hrs by time kill assay relative to control; type: functional
[22] = Toxicity in BALB/c mouse assessed as animal death at 15 to 30 mg/kg, ip measured for 18 hrs; type: organism-based; settings: in vivo, dose 15-30 mg/kg
Staphylococcus aureus [23] = experiment: Antibacterial activity against Staphylococcus aureus ATCC 25923 infected in BALB/c mouse assessed as bacterial load in spleen at 30 mg/kg, ip measured after 18 hrs (Rvb ~ 1 x10^7); type: functional
Staphylococcus aureus [24] = experiment: Antimicrobial activity against methicillin-resistant Staphylococcus aureus; type: functional, organism-based
Staphylococcus aureus [25] = experiment: Antibacterial activity against Staphylococcus aureus ATCC 25923 infected in BALB/c mouse assessed as bacterial load in lung at 30 mg/kg, ip measured after 18 hrs (Rvb ~ 5 x10^6); type: functional
Staphylococcus aureus [26] = experiment: Antimicrobial activity against vancomycin-resistant Staphylococcus aureus; type: functional, organism-based
Staphylococcus aureus [27] = experiment: Antibacterial activity against Staphylococcus aureus ATCC 25923 infected in BALB/c mouse assessed as bacterial load in liver at 30 mg/kg, ip measured after 18 hrs (Rvb ~ 1.75 x10^7); type: functional
Staphylococcus aureus [28] = experiment: Bactericidal activity against Staphylococcus aureus VRS1 at 1 to 4 times MIC by time kill assay; type: functional, organism-based; settings: time <= 24.0 hrs
Staphylococcus aureus [29] = experiment: Antibacterial activity against Staphylococcus aureus ATCC 25923 infected in BALB/c mouse assessed as bacterial load in blood at 30 mg/kg, ip measured after 18 hrs (Rvb ~ 6 x10^6); type: functional
[30] = Hemolytic activity against human RBCs upto 100 uM incubated for 45 mins by absorbance based assay; type: toxicity, cell-based, Erythrocyte; settings: red blood cells (erythrocytes), read-out: Activity

SMILES	MIC (Staphylococcus aureus [1]) [µM]	MBC (Escherichia coli [2]) [µM]	MIC (Acinetobacter baumannii) [µM]	MBC (Staphylococcus aureus [3]) [µM]	MIC (Staphylococcus aureus [4]) [µM]	MIC (Escherichia coli [5]) [µM]	MIC (Pseudomonas aeruginosa) [µM]	MIC (Staphylococcus aureus [6]) [µM]	Activity (Staphylococcus aureus [9])	Activity (Staphylococcus aureus [10])	Activity (Escherichia coli [11])	Activity (Escherichia coli [12])	Activity (Escherichia coli [13])	Activity (Staphylococcus aureus [14])	Activity (Staphylococcus aureus [15])	Activity (Escherichia coli [16])	viability at 4 h, up to 60 µM [17] [%]	Activity (Staphylococcus aureus [18])	other results
O=C(O)c1cn(C2CC2)c2cc(N3CCNCC3)c(F)cc2c1=O [CIPROFLOXACIN]	1.56 (≈ 0.517 µg/mL)	0.39 (≈ 0.129 µg/mL)	0.39 (≈ 0.129 µg/mL)	0.39 (≈ 0.129 µg/mL)	0.39 (≈ 0.129 µg/mL)	0.39 (≈ 0.129 µg/mL)	1.56 (≈ 0.517 µg/mL)	0.39 (≈ 0.129 µg/mL)											
CC[C@H](C)[C@H](NC(=O)[C@H](CCCNC(=N)N)NC(=O)CNC(=O)[C@H](CC(C)C)NC(=O)[C@H](Cc1ccccc1)NC(=O)[C@H](CCCCN)NC(=O)[C@H](CO)NC(=O)[C@H](Cc1ccccc1)NC(=O)[C@H](Cc1c[nH]c2ccccc12)NC(=O)[C@H](CCC(N)=O)NC(=O)[C@@H](NC(=O)[C@@H](N)Cc1ccccc1)C(C)C)C(=O)N[C@@H](CC(C)C)C(N)=O (H-FVQWFSKFLGRIL-NH2)																			Activity (Staphylococcus aureus [7]): Active
CCCCCCCCCC(=O)N[C@@H](Cc1c[nH]c2ccccc12)C(=O)N[C@H](CC(N)=O)C(=O)N[C@@H](CC(=O)O)C(=O)N[C@@H]1C(=O)NCC(=O)N[C@@H](CCCN)C(=O)N[C@@H](CC(=O)O)C(=O)N[C@H](C)C(=O)N[C@@H](CC(=O)O)C(=O)NCC(=O)N[C@H](CO)C(=O)N[C@@H]([C@H](C)CC(=O)O)C(=O)N[C@@H](CC(=O)c2ccccc2N)C(=O)O[C@@H]1C																			Activity (Staphylococcus aureus [8]): 100%
COC(=O)[C@H](Cc1cc2ccc3ccc4ccc5ccc1c1c5c4c3c21)NC(=O)[C@H](N)CCCCN	25 (≈ 12 µg/mL)	200 (≈ 95.9 µg/mL)	50 (≈ 24 µg/mL)	50 (≈ 24 µg/mL)	25 (≈ 12 µg/mL)	100 (≈ 48 µg/mL)	50 (≈ 24 µg/mL)	25 (≈ 12 µg/mL)	Active	Active	Active	inactive	Active	Active	Active	Active	3	Active	
COC(=O)[C@H](Cc1cc2ccc3ccc4ccc5ccc1c1c5c4c3c21)NC(=O)[C@@H](N)CCCCN.Cl.Cl	25	50	200	50	25	50	200	12.5	Active	Active	Active	inactive	Active	Active	Active	Active	71	Active	Activity (Erythrocyte): Non-Toxic; Activity [19]: Non-Toxic; Activity [20]: Non-Toxic; Activity (Staphylococcus aureus [21]): 100%; Activity [22]: Non-Toxic; Activity (Staphylococcus aureus [23]): ~6.5 10^5CFU/ml; Activity (Staphylococcus aureus [24]): Active; Activity (Staphylococcus aureus [25]): ~4.5 10^4CFU/ml; Activity (Staphylococcus aureus [26]): Active; Activity (Staphylococcus aureus [27]): ~1.2 10^6CFU/ml; Activity (Staphylococcus aureus [28]): Dose-Dependent Effect; Activity (Staphylococcus aureus [29]): ~7 10^4CFU/ml
COC(=O)[C@H](CCCc1cc2ccc3ccc4ccc5ccc1c1c5c4c3c21)NC(=O)[C@@H](N)CCCCN	12.5 (≈ 6.35 µg/mL)	25 (≈ 12.7 µg/mL)	25 (≈ 12.7 µg/mL)	12.5 (≈ 6.35 µg/mL)	12.5 (≈ 6.35 µg/mL)	25 (≈ 12.7 µg/mL)	25 (≈ 12.7 µg/mL)	12.5 (≈ 6.35 µg/mL)	Active	Active	Active	inactive	Active	Active	Active	Active	41	Active	
COC(=O)[C@H](Cc1cc2ccc3ccc4ccc5ccc1c1c5c4c3c21)NC(=O)CNC(=O)[C@@H](N)CCCCN	12.5 (≈ 6.71 µg/mL)	50 (≈ 26.8 µg/mL)	100 (≈ 53.7 µg/mL)	50 (≈ 26.8 µg/mL)	12.5 (≈ 6.71 µg/mL)	50 (≈ 26.8 µg/mL)	50 (≈ 26.8 µg/mL)	12.5 (≈ 6.71 µg/mL)	Active			inactive	Active	Active			47		hemolysis at 0.75 h, up to 100 µM [30]: ~3%
CN(C)[C@@H]1C(O)=C(C(N)=O)C(=O)[C@@]2(O)C(O)=C3C(=O)c4c(O)cccc4[C@@](C)(O)[C@H]3C[C@@H]12 [TETRACYCLINE]	0.78 (≈ 0.347 µg/mL)	0.78 (≈ 0.347 µg/mL)	0.39 (≈ 0.173 µg/mL)	0.78 (≈ 0.347 µg/mL)	0.39 (≈ 0.173 µg/mL)	0.78 (≈ 0.347 µg/mL)	1.56 (≈ 0.693 µg/mL)	0.78 (≈ 0.347 µg/mL)											
COC(=O)[C@H](CCCNC(=N)NS(=O)(=O)c1ccc(C)cc1)NC(=O)[C@@H](N)Cc1cc2ccc3ccc4ccc5ccc1c1c5c4c3c21	> 400		> 400		> 400	> 400	> 400	> 400	Active				Active						
COC(=O)[C@H](CCCc1cc2ccc3ccc4ccc5ccc1c1c5c4c3c21)NC(=O)CNC(=O)[C@@H](N)CCCCN	12.5 (≈ 7.06 µg/mL)	50 (≈ 28.2 µg/mL)	50 (≈ 28.2 µg/mL)	12.5 (≈ 7.06 µg/mL)	12.5 (≈ 7.06 µg/mL)	50 (≈ 28.2 µg/mL)	50 (≈ 28.2 µg/mL)	12.5 (≈ 7.06 µg/mL)	Active			inactive	Active	Active			62		hemolysis at 0.75 h, up to 100 µM [30]: ~5%
